Literature values as cited in patent publication US20080227642A1, “Salts, aqueous liquid compositions containing salts of abscisic acid analogs and methods of their preparation” (priority 2007, published 2008).

Conditions: room temperature

CC1=CC(=O)CC(C)(C)[C@@]1(O)/C=C/C(C)=C\C(=O)O [(S)-(+)-abscisic acid, 2-cis-,4-trans-(S)-(+)-abscisic acid]
highest concentration that can be achieved in pure water: about 3000 ppm
